Structures can show the parent of a compound that is named as a salt.

One assay deals with passively sensitized guinea-pig lung parenchymal strips. Put plainly: Inhibition of the antigen-induced constriction of passively sensitized guinea-pig lung parenchymal strips in vitro (organ bath). The conditions noted are these: Cavia porcellus, 20 μg/ml, ovalbumin 0.1 μg/ml, 20 min/37° C. preincubation time (organ bath technique). The assay is classed as cell-based, guinea-pig (Pirbright-White). As for the experimental part: Inhibition of the antigen-induced constriction of passively sensitized guinea-pig - lung parenchymal - strips in vitro (organ bath) For the in vitro examination of the compounds according to the invention, the inhibition of the antigen-induced constriction of passively sensitized guinea-pig lung parenchymal strips was measured as described in the following: Pirbright-White guinea-pigs were stunned by a blow on the neck and exsanguinated. The lungs were rinsed substantially free of blood in situ using Krebs buffer, pH 7.4. Subsequently the lung was excised, cut into strips (ca. 20×4×4 mm) and the strips were passively sensitized for one hour at room temperature with a 1:50 dilution of a homologous anti-ovalbumin antiserum and then washed once with Krebs buffer. The antiserum had previously been produced in guinea-pigs of the same strain according to […] (1) by repeated injection of ovalbumin (2×crystallized) with addition of complete Freund's adjuvant. The antiserum was stored undiluted at -18° C. until use. Subsequently the lung strips were suspended individually in 10 ml water baths on an isometric measuring recorder with an initial tension of 1.2 g. Afterwards the baths were filled with Krebs buffer and gassed continuously at 37° C. with O2 (95%) and CO2 (5%). The constrictions of the lung strips were recorded via an amplifier on a recorder. […] The inhibitory effects of the compounds according to the invention were expressed as percentage reduction of the constriction amplitudes of the "samples with test substance" in relation to the "untreated control constrictions". (1) […]. Johnstone Quantitative studies on anaphylaxis in guinea-pigs passively sensitized with homologous antibody. Inter. Arch. Allergy 41, 648-454 (1971) |% inhibition of the ovalbumin (0.1 μg/ml) induced |constriction of passively sensitized lung parenchymal strips |(guinea-pig) |20 min/37° C. preincubation time (organ bath technique)
As usually defined, the inhibition is the relative decrease from the control value, in per cent. For the compound `CCN(CC)CC1=Cc2ccc(Cl)c(Cl)c2S1(=O)=O` [Example 7, 6,7-dichloro-2-(N,N-diethylamino-methyl)benzo[b]thiophene-1,1-dioxide-hydrochloride], the inhibition at 20 µg/mL came to 88%.
With `O=S1(=O)CC(N2CCCC2)C(N2CCCC2)c2ccc(Cl)cc21` (stereo not drawn) [3a), 7-chloro-3,4-bis-pyrrolidino-benzo[b]thian-1,1-dioxide], the inhibition at 20 µg/mL was 25%.
`CCN(CC)CC1=Cc2cc(Cl)c(Cl)cc2S1(=O)=O` [Example 6, 5,6-dichloro-2-(N,N-diethylamino-methyl)benzo[b]-thiophene-1,1-dioxide-hydrochloride]: the inhibition at 20 µg/mL was determined as 51%.
On to `CCCCNC1CS(=O)(=O)c2cc(Cl)ccc2C1NCCCC` (stereo not drawn) [Example 5l), 7-chloro-3,4-bis-n-butyl-amino-benzo[b]thian-1,1-dioxide-dihydrochloride], for which the inhibition at 20 µg/mL stood at 25%.
As for `CCN(CC)CC1=Cc2ccc(Cl)cc2S1(=O)=O` [Example 1, 6-chloro-2-(N,N-diethylamino-methyl)benzo[b]thiophene-1,1 dioxide], the inhibition at 20 µg/mL came out at 53%.

Staying with this assay, now noted: Cavia porcellus, 200 μg/ml (footnote *), ovalbumin 0.1 μg/ml, 20 min/37° C. preincubation time (organ bath technique).
With `Cn1c(=O)c2[nH]cnc2n(C)c1=O` [aminophylline, reference compound], the inhibition at 200 µg/mL was found to be 26%.

The values are drawn from US5547980A, “Bicyclic sulfones, processes for their production and pharmaceutical agents containing them” (Boehringer Mannheim GmbH, priority 1991, dated 1996).
